Test results: patent publication US20260174778A1, “SULFONAMIDE COMPOUND, AND PREPARATION METHOD THEREFOR AND USE THEREOF” (SHANGHAI HENLIUS BIOTECH, INC., priority 2023, published 2026)

Test system: breast cancer cell line ZR-75-1
Assay: Inhibition of proliferation of breast cancer cell line ZR-75-1 (CellTiter-Glo)
Type: cell-based
Conditions: Homo sapiens, 240 h, proliferation of ZR-75-1 cells, 10 days of incubation, read-out: IC50 (KAT6A)
From the text: Test Example 1: Experiment for Determining Inhibitory Effects of Compounds on Proliferation of Breast Cancer Cell Line ZR-75-1
ATP is an indicator of the metabolism of living cells. The CellTiter-Glo® Luminescent Cell Viability Assay is a homogeneous assay method for determining the number of viable cells by quantifying ATP.
• 1) ZR-75-1 (Cell Bank of Chinese Academy of Sciences, TCHul26) • 2) RPMI-1640 medium (Gibco, 11875-093) • 3) Fetal Bovine Serum, New Zealand (Gibco,10091-148) • 4) Penicillin-streptomycin (10,000 U/mL) (Gibco, 15140-122) • 5) Trypsin-EDTA (0.25%), containing phenol red (Gibco, 25200-072) • 6) DPBS (Shanghai BasalMedia, B210KJ) • 7) Corning® 96-well Clear Flat Bottom Ultra-Low Attachment Microplate (Corning, Cat. No. 3474) • 8) 330 μL 96 Holes Deep Well Plate, transparents, 96 Round Holes, V-shaped Bottom, Low Retention (Stellar Scientific, DP33VR-9-NS) • 9) Corning® 96-well solid white flat-bottom polystyrene microplate (Corning, Cat. No. 3917) • 10) CellTiter-Glo® Luminescent Cell Viability Assay (Promega, G7573) • 11) Countstar® BioMed automatic cell counter • 12) Trypan blue solution, 0.4% (Gibco, Cat. No. 15250061) • 13) 37° C. constant-temperature incubator (Thermo, FORMA STERI-CYCLE i160 LK) • 14) Biosafety cabinet (Thermo, 1379)
• 1) The formula of the complete medium for ZR-75-1 was as follows: 500 mL RPMI-1640+10% FBS+1% penicillin-streptomycin. • 2) Thirty minutes before cell plating, the complete medium, serum, trypsin, and DPBS for use in ZR-75-1 cell culture were pre-warmed in a water bath at 37° C. • 3) The ZR-75-1 cells were taken out of the incubator, and the medium was removed by pipetting. The cells were rinsed once with 5 mL of DPBS, and then the DPBS was discarded. • 4) The cells in the T75 culture flask were digested with 1-3 mL of (0.25%) trypsin-EDTA. After the trypsin was added, the culture flask was incubated in an incubator at 37° C. for 2-5 min, and dispersion was confirmed by microscopic examination. Tapping or agitating the culture flask was avoided to prevent disturbing the cells, which might cause cell clumping. • 5) 9 mL of the complete medium was added to terminate the digestion, thus forming a cell suspension, which was then mixed well by pipetting. • 6) Cell suspension counting: 20 μL of the cell suspension was pipetted and diluted with 20 µL of the 0.4% trypan blue solution (Gibco, Cat. No. 15250061). The total cell count and the percentage of cell viability were determined using the Countstar® BioMed automatic cell counter. Only cells with a cell viability of no less than 95% were used for the experiment. • 7) The concentration of the cell suspension was adjusted to 2000 cells/well, and the cell suspension was added to a 96-well cell culture plate at 80 μL/well. Treatment of Cells with Compounds • 1) Twenty-four hours after cell plating, the cell plate was taken out. • 2) Each compound was prepared with a complete medium. The stock solution was a 10 mM solution in DMSO, which was first diluted with the medium to 100 μM, then diluted to 1 μM, and finally subjected to a 5-fold serial dilution across a total of 9 concentration gradients. • 3) 20 μL of the compound diluted with the medium was added to each well of the cell culture plate, which already contained 80 μL of the medium. The final concentration started at 200 nM, followed by a 5-fold serial dilution across a total of 9 concentration gradients. Two replicate wells were set for each compound, and each plate could be used to test 3 compounds, with the DMSO content controlled within 0.5%. • 4) The culture medium was replenished once every three days with a complete medium containing the same concentration of the test compound, with 20 μL/well added each time.
After 10 days of incubation with the compound, the cell culture plate was taken out, and the CellTiter-Glo® reagent was added at 50 μL/well. […]

SMILES | IC50
COc1cc(Cn2cccn2)cc2onc(NS(=O)(=O)c3cccc4c3OC(F)(F)O4)c12 [Compound 5, N-(6-((1H-Pyrazol-1-yl)methyl)-4-methoxybenzo[d]isoxazol-3-yl)-2,2-difluorobenzo[d][1,3]dioxole-4-sulfonamide] | ≥ 50 nM
COc1ccc2c(c1S(=O)(=O)Nc1noc3cc(Cn4cccn4)c(F)c(OC)c13)OCCC21CC1 [Compound 43, N-(6-((1H-Pyrazol-1-yl)methyl)-5-fluoro-4-methoxybenzo[d]isoxazol-3-yl)-7-methoxyspiro[chromane-4,1′-cyclopropane]-8-sulfonamide] | < 0.5 nM
COc1c(F)c(Cn2cccn2)cc2onc(NS(=O)(=O)c3c(F)ccc4c3OCCC4(F)F)c12 [Compound 105, N-(6-((1H-Pyrazol-1-yl)methyl)-5-fluoro-4-methoxybenzo[d]isoxazol-3-yl)-4,4,7-trifluorochromane-8-sulfonamide] | 10 to 50 nM
CCc1ccc(OC2CCC2)c(S(=O)(=O)Nc2noc3cc(Cn4cccn4)cc(OC)c23)c1 [Compound 22, N-(6-((1H-Pyrazol-1-yl)methyl)-4-methoxybenzo[d]isoxazol-3-yl)-2-cyclobutoxy-5-ethylbenzenesulfonamide] | 2 to 10 nM
COc1cc(Cn2cccn2)cc2onc(NS(=O)(=O)c3cc(C(C)C)ccc3OCC(F)F)c12 [Compound 10, N-(6-((1H-Pyrazol-1-yl)methyl)-4-methoxybenzo[d]isoxazol-3-yl)-2-(2,2-difluoroethoxy)-5-isopropylbenzenesulfonamide] | 2 to 10 nM
COc1ccc2c(c1S(=O)(=O)Nc1noc3cc(Cn4cccn4)cc(OC)c13)OCC2(C)C [Compound 20, N-(6-((1H-Pyrazol-1-yl)methyl)-4-methoxybenzo[d]isoxazol-3-yl)-6-methoxy-3,3-dimethyl-2,3-dihydrobenzofuran-7-sulfonamide] | 0.5 to 2 nM
COc1cc(Cn2cccn2)cc2onc(NS(=O)(=O)c3c(F)ccc4c3OCCC4(F)F)c12 [Compound 103, N-(6-((1H-Pyrazol-1-yl)methyl)-4-methoxybenzo[d]isoxazol-3-yl)-4,4,7-trifluorochromane-8-sulfonamide] | 10 to 50 nM
COc1ccc2c(c1S(=O)(=O)Nc1noc3cc(Cn4cccn4)cc(OC)c13)OCCC2(C)C [Compound 16, N-(6-((1H-Pyrazol-1-yl)methyl)-4-methoxybenzo[d]isoxazol-3-yl)-7-methoxy-4,4-dimethylchromane-8-sulfonamide] | < 0.5 nM
COc1ccc2c(c1S(=O)(=O)Nc1noc3cc(Cn4cccn4)c(F)c(Cl)c13)OCCC2(C)C [Compound 31, N-(6-((1H-Pyrazol-1-yl)methyl)-4-chloro-5-fluorobenzo[d]isoxazol-3-yl)-7-methoxy-4,4-dimethylchromane-8-sulfonamide] | 0.5 to 2 nM
COc1ccc2c(c1S(=O)(=O)Nc1noc3cc(Cn4cccn4)c(Cl)c(OC)c13)OCCC2(C)C [Compound 29, N-(6-((1H-Pyrazol-1-yl)methyl)-5-chloro-4-methoxybenzo[d]isoxazol-3-yl)-7-methoxy-4,4-dimethylchromane-8-sulfonamide] | 10 to 50 nM
COc1ccc2c(c1S(=O)(=O)Nc1noc3cc(Cn4cccn4)cc(Cl)c13)OCCC21CC1 [Compound 46, N-(6-((1H-Pyrazol-1-yl)methyl)-4-chlorobenzo[d]isoxazol-3-yl)-7-methoxyspiro[chromane-4,1′-cyclopropane]-8-sulfonamide] | 2 to 10 nM
COc1ccc2c(c1S(=O)(=O)Nc1noc3cc(Cn4cccn4)cc(OC)c13)OCCC2O (stereo not drawn) [Compound 36, N-(6-((1H-Pyrazol-1-yl)methyl)-4-methoxybenzo[d]isoxazol-3-yl)-4-hydroxy-7-methoxychromane-8-sulfonamide] | < 0.5 nM
COc1cc(Cn2cccn2)cc2onc(NS(=O)(=O)c3cc(C(C)C)ccc3OC3CCC3)c12 [Compound 23, N-(6-((1H-Pyrazol-1-yl)methyl)-4-methoxybenzo[d]isoxazol-3-yl)-2-cyclobutoxy-5-isopropylbenzenesulfonamide] | 2 to 10 nM
COc1c(F)c(Cn2cccn2)cc2onc(NS(=O)(=O)c3cc(C(C)(C)C)ccc3OC3CCC3)c12 [Compound 7, N-(6-((1H-Pyrazol-1-yl)methyl)-5-fluoro-4-methoxybenzo[d]isoxazol-3-yl)-5-(tert-butyl)-2-cyclobutoxybenzenesulfonamide] | 0.5 to 2 nM
COc1ccc2c(c1S(=O)(=O)Nc1noc3cc(Cn4cccn4)cc(OC)c13)OCCC21CCCC1 [Compound 26, N-(6-((1H-Pyrazol-1-yl)methyl)-4-methoxybenzo[d]isoxazol-3-yl)-7-methoxyspiro[chromane-4,1′-cyclopentane]-8-sulfonamide] | < 0.5 nM
COc1ccc2c(c1S(=O)(=O)Nc1noc3cc(Cn4cccn4)cc(Cl)c13)OCCC2(C)C [Compound 33, N-(6-((1H-Pyrazol-1-yl)methyl)-4-chlorobenzo[d]isoxazol-3-yl)-7-methoxy-4,4-dimethylchromane-8-sulfonamide] | 0.5 to 2 nM
COc1cc(Cn2cccn2)cc2onc(NS(=O)(=O)c3ccccc3OC3CC(F)(F)C3)c12 [Compound 2, N-(6-((1H-Pyrazol-1-yl)methyl)-4-methoxybenzo[d]isoxazol-3-yl)-2-(3,3-difluorocyclobutoxy)benzenesulfonamide] | 2 to 10 nM
COc1cccc(OC)c1S(=O)(=O)Nc1nsc2cc(Cn3cccn3)ccc12 [Compound 25, N-(6-((1H-Pyrazol-1-yl)methyl)benzo[d]isothiazol-3-yl)-2,6-dimethoxybenzenesulfonamide] | ≥ 50 nM
COc1ccc2c(c1S(=O)(=O)Nc1noc3cc(Cn4cccn4)cc(OC)c13)OCCC2=O [Compound 37, N-(6-((1H-Pyrazol-1-yl)methyl)-4-methoxybenzo[d]isoxazol-3-yl)-7-methoxy-4-oxochromane-8-sulfonamide] | < 0.5 nM
COc1ccc2c(c1S(=O)(=O)Nc1noc3cc(Cn4cccn4)cc(OC)c13)OCCC21SCCS1 [Compound 39, N-(6-((1H-Pyrazol-1-yl)methyl)-4-methoxybenzo[d]isoxazol-3-yl)-7-methoxyspiro[chromane-4,2′-[1,3]dithiolane]-8-sulfonamide] | < 0.5 nM
COc1ccc2c(c1S(=O)(=O)Nc1noc3cc(Cn4cccn4)c(Cl)c(OC)c13)OCCC21CC1 [Compound 52, N-(6-((1H-Pyrazol-1-yl)methyl)-5-chloro-4-methoxybenzo[d]isoxazol-3-yl)-7-methoxyspiro[chromane-4,1′-cyclopropane]-8-sulfonamide] | ≥ 50 nM
COc1cccc(OC)c1S(=O)(=O)Nc1noc2cc(Cn3cccn3)cc(OC)c12 [PF-9363, reference compound] | 0.5 to 2 nM
CC(C)(C)c1ccc(OC2CCC2)c(S(=O)(=O)Nc2noc3cc(Cn4cccn4)c(C4CC4)cc23)c1 [Compound 8, N-(6-((1H-Pyrazol-1-yl)methyl)-5-cyclopropylbenzo[d]isoxazol-3-yl)-5-(tert-butyl)-2-cyclobutoxybenzenesulfonamide] | 10 to 50 nM
COc1cc(Cn2cccn2)cc2onc(NS(=O)(=O)c3cc(C(C)(C)C)ccc3OC3CCC3)c12 [Compound 3, N-(6-((1H-Pyrazol-1-yl)methyl)-4-methoxybenzo[d]isoxazol-3-yl)-5-(tert-butyl)-2-cyclobutoxybenzenesulfonamide] | 2 to 10 nM
